Experiments:
STEME = assay: Pre-emergence action against STEME, 1280 g/ha; type: in vivo, Stellaria media; conditions: scored visually after about 3 weeks vs untreated controls (100% = plants have died)
Method in brief: (§1)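 Mono- and dicot weed seeds sown in sandy loam were treated on the covering soil surface with WP or EC formulations plus 0.5% additive at 600 L water/ha. Pots stayed in a greenhouse; damage was scored visually after ~3 weeks as percent versus untreated controls (100% = dead).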

DIGSA [1] = assay: Pre-emergence action against DIGSA, 1280 g/ha; type: in vivo, Digitaria sanguinalis; conditions: visual scoring after about 3 weeks vs untreated controls, 100% = plants have died, 0% = like control plants
Method in brief: as §1

ECHCG = assay: Pre-emergence action against ECHCG, 1280 g/ha; type: in vivo, Echinochloa crus-galli; conditions: visual scoring after about 3 weeks vs untreated controls, 100% = plants have died, 0% = like control plants
Method in brief: as §1

AMARE [2] = assay: Pre-emergence action at 320 g/ha against AMARE; type: in vivo, Amaranthus retroflexus; conditions: visual scoring after about 3 weeks vs untreated controls
Method in brief: (§2)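 Percent herbicidal activity was assessed by eye roughly three weeks post-application, comparing with untreated plants. Treatment consisted of applying formulated compound in water plus 0.5% additive to covering soil at 600 l/ha before emergence.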

MATIN [3] = assay: Pre-emergence action at 320 g/ha against MATIN; type: in vivo, Tripleurospermum inodorum (Matricaria inodora); conditions: visual scoring after about 3 weeks vs untreated controls
Method in brief: as §2

AVEFA [4] = assay: Pre-emergence action at 320 g/ha against AVEFA; type: in vivo; conditions: visual scoring after about 3 weeks vs untreated controls
Text: b) Seeds of monocotyledonous and dicotyledonous weed plants and crop plants are placed in plastic or organic planting pots and covered with soil. The compounds of the invention, formulated in the form of wettable powders (WP) or as emulsion concentrates (EC), are then applied onto the surface of the covering soil as aqueous suspension or emulsion with addition of 0.5% additive at a water application rate of 600 l/ha (converted). After the treatment, the pots are placed in a greenhouse and kept under good growth conditions for the trial plants. After about 3 weeks, the effect of the preparations is scored visually in comparison with untreated controls as percentages. For example, 100% activity=the plants have died, 0% activity=like control plants. Tables 13 to 26 below show the effects of selected compounds of the general formula (I) on various harmful plants and at an application rate corresponding to 320 g/ha, which were obtained by the experimental procedure mentioned above.

SETVI [5] = assay: Pre-emergence action at 320 g/ha against SETVI; type: in vivo, Setaria viridis; conditions: visual scoring after about 3 weeks vs untreated controls
Method in brief: as §2

VIOTR = assay: Pre-emergence action at 320 g/ha against VIOTR; type: in vivo, Viola tricolor; conditions: dosage 320 g/ha
Method in brief: as §2

LOLRI [6] = assay: Pre-emergence action at 320 g/ha against LOLRI; type: in vivo, Lolium rigidum; conditions: visual scoring after about 3 weeks vs untreated controls
Method in brief: as §2

VERPE [7] = assay: Post-emergence action against VERPE, 1.28 kg/ha; type: in vivo, Veronica persica; conditions: dosage 1280 g/ha, visual rating about 3 weeks after treatment vs untreated controls (100% = plants died)
Method in brief: (§3)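 Visual rating against untreated plants about 3 weeks after spraying gives % activity, where 0% means like controls and 100% means plants died. Plants were treated post-emergence at the one-leaf stage with compound formulated as wettable powder or emulsion concentrate, applied at 600 L water/ha plus 0.5% additive.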

SETVI [8] = assay: Pre-emergence action against SETVI, 1280 g/ha; type: in vivo, Setaria viridis; conditions: visual scoring after about 3 weeks vs untreated controls, 100% = plants have died, 0% = like control plants
Method in brief: as §1

MATIN [9] = assay: Post-emergence action against MATIN, 1.28 kg/ha; type: in vivo, Tripleurospermum inodorum (Matricaria inodora); conditions: dosage 1280 g/ha, visual rating about 3 weeks after treatment vs untreated controls (100% = plants died)
Method in brief: as §3

POAAN [10] = assay: Pre-emergence action against POAAN, 1280 g/ha; type: in vivo, Poa annua; conditions: visual scoring after about 3 weeks vs untreated controls, 100% = plants have died, 0% = like control plants
Method in brief: as §1

AVEFA [11] = assay: Post-emergence action at 320 g/ha against AVEFA; type: in vivo; conditions: visual rating about 3 weeks after treatment vs untreated controls
Text: Accordingly, the compounds of the invention have good herbicidal action against a broad spectrum of weed grasses and broad-leaved weeds and are therefore suitable for controlling unwanted vegetation by the post-emergence method. • b) Seeds of monocotyledonous and dicotyledonous weeds and crop plants are placed in sandy loam in plastic or organic planting pots, covered with soil and cultivated in a greenhouse under controlled growth conditions. 2 to 3 weeks after sowing, the test plants are treated at the one-leaf stage. The compounds of the invention, formulated in the form of wettable powders (WP) or as emulsion concentrates (EC), are then sprayed onto the green parts of the plants as aqueous suspension or emulsion with addition of 0.5% additive at a water application rate of 600 l/ha (converted). After the test plants have been kept in the greenhouse under optimum growth conditions for about 3 weeks, the activity of the preparations is rated visually in comparison to untreated controls. For example, 100% activity=the plants have died, 0% activity=like control plants. Tables 39 to 49 below show the effects of selected compounds of the general formula (I) according to Tables 1 and 2 on various harmful plants and at an application rate corresponding to 320 g/ha, which were obtained by the experimental procedure mentioned above.

POLCO = assay: Pre-emergence action at 320 g/ha against POLCO; type: in vivo, Fallopia convolvulus (Polygonum convolvulus); conditions: visual scoring after about 3 weeks vs untreated controls
Method in brief: as §2

AMARE [12] = assay: Post-emergence action against AMARE, 1.28 kg/ha; type: in vivo, Amaranthus retroflexus; conditions: dosage 1280 g/ha, visual rating about 3 weeks after treatment vs untreated controls (100% = plants died)
Method in brief: as §3

VERPE [13] = assay: Pre-emergence action at 320 g/ha against VERPE; type: in vivo, Veronica persica; conditions: visual scoring after about 3 weeks vs untreated controls
Method in brief: as §2

LOLRI [14] = assay: Pre-emergence action against LOLRI, 1280 g/ha; type: in vivo, Lolium rigidum; conditions: visual scoring after about 3 weeks vs untreated controls, 100% = plants have died, 0% = like control plants
Method in brief: as §1

AMARE [15] = assay: Pre-emergence action against AMARE, 1280 g/ha; type: in vivo, Amaranthus retroflexus; conditions: scored visually after about 3 weeks vs untreated controls (100% = plants have died)
Method in brief: as §1

MATIN [16] = assay: Pre-emergence action against MATIN, 1280 g/ha; type: in vivo, Tripleurospermum inodorum (Matricaria inodora); conditions: scored visually after about 3 weeks vs untreated controls (100% = plants have died)
Method in brief: as §1

POAAN [17] = assay: Post-emergence action against POAAN, 1.28 kg/ha; type: in vivo, Poa annua; conditions: dosage 1280 g/ha, visual rating about 3 weeks after treatment vs untreated controls
Method in brief: as §3

ALOMY [18] = assay: Pre-emergence action at 320 g/ha against ALOMY; type: in vivo, Alopecurus myosuroides; conditions: scored visually after about 3 weeks vs untreated controls (100% = plants have died)
Method in brief: as §2

DIGSA [19] = assay: Pre-emergence action at 320 g/ha against DIGSA; type: in vivo, Digitaria sanguinalis; conditions: visual scoring after about 3 weeks vs untreated controls
Method in brief: as §2

ALOMY [20] = assay: Pre-emergence action against ALOMY, 1280 g/ha; type: in vivo, Alopecurus myosuroides; conditions: visual scoring after about 3 weeks vs untreated controls, 100% = plants have died, 0% = like control plants
Method in brief: as §1

VERPE [21] = assay: Pre-emergence action against VERPE, 1280 g/ha; type: in vivo, Veronica persica; conditions: scored visually after about 3 weeks vs untreated controls (100% = plants have died)
Method in brief: as §1

KCHSC = assay: Pre-emergence action against KCHSC, 1280 g/ha; type: in vivo, Bassia scoparia; conditions: scored visually after about 3 weeks vs untreated controls (100% = plants have died)
Method in brief: as §1

C[C@@H](Oc1nn(-c2ccccc2F)c(-c2cncnc2)c1[N+](=O)[O-])C(=O)O [VI-016]
90%: Post-emergence action against VERPE (VERPE [7]) | Post-emergence action against MATIN (MATIN [9]) | Post-emergence action against AVEFA in % (AVEFA [11]) | Pre-emergence action against POLCO in % (POLCO) | Pre-emergence action against ALOMY (ALOMY [20])
80%: Pre-emergence action against AVEFA in % (AVEFA [4])
100%: Pre-emergence action against STEME (STEME) | Pre-emergence action against DIGSA (DIGSA [1]) | Pre-emergence action against ECHCG (ECHCG) | Pre-emergence action against AMARE in % (AMARE [2]) | Pre-emergence action against MATIN in % (MATIN [3]) | Pre-emergence action against SETVI in % (SETVI [5]) | Pre-emergence action against VIOTR in % (VIOTR) | Pre-emergence action against LOLRI in % (LOLRI [6]) | Pre-emergence action against SETVI (SETVI [8]) | Pre-emergence action against POAAN (POAAN [10]) | Post-emergence action against AMARE (AMARE [12]) | Pre-emergence action against VERPE in % (VERPE [13]) | Pre-emergence action against LOLRI (LOLRI [14]) | Pre-emergence action against AMARE (AMARE [15]) | Pre-emergence action against MATIN (MATIN [16]) | Post-emergence action against POAAN (POAAN [17]) | Pre-emergence action at 320 g/ha against ALOMY in % (ALOMY [18]) | Pre-emergence action against DIGSA in % (DIGSA [19]) | Pre-emergence action against VERPE (VERPE [21]) | Pre-emergence action against KCHSC (KCHSC)

From patent US12180187B2, “1-phenyl-5-azinylpyrazolyl-3-oxyalkyl acids and their use for controlling unwanted plant growth” (BAYER AKTIENGESELLSCHAFT, priority 2019, dated 2024)
